Source: US20090252834A1, “Compositions comprising glucose anti-metabolites” (priority 2004, published 2009)

Tests used:
[1] = system: fruit flies and/or nematodes; assay: Lifespan of fruit flies and/or nematodes fed mannoheptulose; type: in vivo
Excerpt: Both of these endpoints are closely related to altered glucose and/or carbohydrate metabolism, similar to that elicited by dietary caloric restriction.

[2] = Pharmacokinetics of mannoheptulose, once daily in a nutritionally-balanced composition, adult Labrador Retrievers; type: in vivo, Labrador Retriever dogs
Experimental: The pharmacokinetics of mannoheptulose can be determined in six adult, male Labrador Retriever dogs fed a nutritionally-balanced composition providing mannoheptulose at levels of 0, 1 or 2 mg/kg of body weight of the dog. Mannoheptulose is provided as an enriched source of avocado extract in the 1 and 2 mg/kg diets. The mean age of the dogs is 4.2 years and the age ranges from 3.3 to 6.1 years. The average body weight of all dogs is 33 kg and the body weight ranges from 28 to 36 kg. Dogs are adapted for 14 days to a nutritionally-balanced control composition (Eukanuba Senior Maintenance Formula) containing no mannoheptulose, avocado extract or avocado meal (0 mg/kg mannoheptulose). The two compositions containing mannoheptulose are the nutritionally-balanced control composition formulated with avocado extract to provide a mannoheptulose dose of 1 or 2 mg/kg of body weight when fed to a dog. The amount of composition offered to the dogs is based on feeding guidelines for the control composition and the target weight range and body condition of the dogs. After 14 days, dogs are fed one of the three compositions for 9 days. On day 9, the dogs are fed their daily allotment of composition as a single meal at 0730. Dog 1 and dog 2 are fed the control composition containing 0 mg/kg mannoheptulose, dog 3 and dog 4 are fed the composition containing 1 mg/kg mannoheptulose, and dog 5 and dog 6 are fed the composition containing 2 mg/kg mannoheptulose. Pharmacokinetics of mannoheptulose following once daily administration of mannoheptulose in a nutritionally-balanced composition is determined by collecting serial blood samples (3 mL) from each dog on day 9 using a Vacutainer blood collection system and jugular venipuncture. Blood samples are collected at −30, 0, 30, 60, 90, 120, 240, 360, 480, 600, 720 and 1,440 minutes relative to each dog receiving their entire daily allotment of composition as a single meal. Plasma mannoheptulose concentrations are measured using high-performance liquid chromatography tandem mass spectrometry as described herein below.
A one-compartment model is used to calculate mannoheptulose pharmacokinetics based on plasma mannoheptulose levels following once daily oral administration of mannoheptulose in a nutritionally-balanced composition (PV(t)). The model is: PV(t)=dose/(a·BW)e^−kt where: a mannoheptulose pool size (dose/(enrichment at to)), BW=body weight, k=rate constant of elimination (In Et−1n E0)/−t, and t=time. Area under each plasma mannoheptulose curve is determined using a one-way, repeated measures analysis of variance (GraphPad Prism version 4.00 for Windows).
High performance liquid chromatography tandem mass spectrometry (HPLC/MS/MS) is utilized to determine the amount of mannoheptulose present in the plasma of adult dogs. D-mannoheptulose and its chemical analog internal standard (D7-glucose) are isolated from dog plasma by a protein precipitation procedure (described herein below) using a 96-well format. […] Detection and quantitation is by mass spectrometry (MS) operating under multiple reaction monitoring MS/MS conditions. Concentrations of D-mannoheptulose in dog plasma can be quantitated from approximately 20 to 5000 ng/mL. […] Specimen concentrations are determined by back-calculation using a weighted (1/x^2) linear regression of a calibration curve generated from prepared D-mannoheptulose calibration standards.

[3] = system: older Labrador Retrievers; assay: ADL-Jump (jumping over hurdles) of older dogs; type: in vivo, Labrador Retriever dogs; details: 2 mg/kg, across all four quarters
Experimental: A total of 39 older Labrador Retrievers are fed a nutritionally-balanced composition providing mannoheptulose at levels of 0 or 2 mg/kg of body weight of the dog. Average age of the dogs (12 neutered males, 27 spayed females) at the start of a 4-year study is 6.7 years with a range of 5.1 to 8.2 years of age for the youngest and oldest dog within the cohort, respectively. The 0 mg/kg composition is fed as a nutritionally-balanced control composition (Eukanuba Senior Maintenance Formula) and it contains no mannoheptulose, avocado extract or avocado meal. The 2 mg/kg composition is the nutritionally-balanced control composition formulated with avocado extract to provide mannoheptulose at a dose of 2 mg/kg body weight of the dog. The nutritionally-balanced composition containing 0 mg/kg mannoheptulose is referred to as Diet 1 within this Example. The nutritionally-balanced composition containing 2 mg/kg mannoheptulose is referred to as Diet 2 within this Example. […]
Shoulder height of each individual dog is measured using a tape measure and recorded. […]
The ADL-Table activity requires the dog to jump on to and down from the platform of four tables of graduated heights, starting with the lowest table height first. […] For both activities, dogs are scored for the number of attempts at each graduated height and the successful completion of each height. […]

O=C(CO)[C@@H](O)[C@@H](O)[C@H](O)[C@H](O)CO [mannoheptulose]
lifespan extension [1]: ~50% | response of plasma mannoheptulose levels to dietary mannoheptulose levels ([2]; 0, 1, 2 mg/kg): dose-dependent manner | time for plasma mannoheptulose to return to non-detectable levels ([2]; after consumption of the single daily meal): ≤ 24 h | half-life ([2]; male, Labrador Retriever, dog, plasma, once daily oral, 2 mg/kg, mathematical modeling): 6.25 h | turnover time ([2]; once daily oral, 2 mg/kg, mathematical modeling): 9.0 h | order of plasma kinetics ([2]; once daily oral, 1 or 2 mg/kg): first order kinetics | percentage of older dogs successfully jumping heights vs composition devoid of mannoheptulose [3]: a greater percentage of older dogs are able to successfully jump all heights
